Where two headings read alike, the source gives them in different places.
Experiments:
Type in all cases: cell-based
primary human NK cells = assay: NK cell activation assessed by cytokine secretion (coculture with K562 NucRed target cells); settings: for fold induction at 0.625 µM: 0.625 μM compound; for fold induction at 2.5 µM: 2.5 μM compound
Description: Peripheral blood mononuclear cells (PBMC) were obtained either: 1) by using Ficoll-Paque™ (GE Healthcare) for separation of peripheral blood hematopoietic cells from buffy coats of healthy human donors; or 2) directly from LeukoPak donations. […] The cells were cultured overnight with IL-2 (60 ng/mL) at 37° C. 5% CO2. Cbl-b inhibitors were added 1 hour prior to stimulation and incubated at 37° C. 5% CO2 at a specific concentration (e.g., 10 μM, 1 μM, or 0.1 μM) with a final DMSO concentration of <0.1%. NK cells were co-cultured with target cells that were engineered to have a red nucleus (K562 NucRed) measurable by flow cytometry. […] The cells were mixed at the indicated ratios (e.g., 5:1, 1:1, or 1:5) of NK (effector cells) to K562 NucRed (target cells) for 6 hours. Cell free supernatants were collected and analyzed for cytokine secretion (e.g. TNFα, IFNγ, or MIP1β) by ELISA or Luminex multiplex kits following the manufacturer's protocol. IFNγ secretion was assessed using an R&D Systems ELISA kit (Catalog #DY285), TNFα secretion was assessed using an R&D Systems ELISA kit (Catalog #DY210), and MIP1β secretion was assessed using an R&D Systems ELISA kit (Catalog #DY271).
Readouts were reported as fold change over baseline. Baseline for this study was the measurement obtained from primary human NK effector cells cocultured with K562 NucRed target cells in the absence of a Cbl-b inhibitor. For NK cells cocultured with K562 NucRed cells, changes greater than 2.0-fold over baseline for cytokine secretion were considered a positive response (Table 10a and 10b).

[1] = tested on: primary human total T-cells; assay: T-cell activation assessed by cytokine secretion (GM-CSF, IFNγ, TNFα)
Source text: (§1) Peripheral blood mononuclear cells (PBMC) were obtained either: 1) by using Ficoll-Paque™ (GE Healthcare) for separation of peripheral blood hematopoietic cells from buffy coats of healthy human donors; or 2) directly from FeukoPak donations. Total human primary T-cells were isolated from the PMBCs utilizing negative selection with commercial kits following the manufacturer's protocol (Miltenyi Catalog #130-096-535 (i.e., cocktail of antibodies against surface markers CD14, CD15, CD16, CD19, CD34, CD36, CD56, CD123 and CD235a are incubated with the PBMCs before passing the samples by magnetic beads for removal of cells expressing those surface markers) or StemCells Catalog #17951) to yield >95% CD3+ cells as assessed by flow cytometry. For measurement of cell proliferation, cells were labeled with Cell Trace Violet (Invitrogen) following manufacturer's protocol prior to activation by stimulation with anti-CD3 antibody alone or in combination with anti-CD28 antibody. The Cbl-b inhibitor was added to 1×10^5 cells per well at multiple concentrations (e.g., 10 μM, 1.11 μM, or 0.123 μM) with a final DMSO concentration of <0.1%. The plate was incubated for one hour at 37° C. in 5% CO2. Following incubation with the Cbl-b inhibitor, primary human total T-cells were stimulated with either plate bound anti-CD3 antibody (OKT3) alone or plate bound anti-CD3 antibody (OKT3) with soluble anti-CD28 antibody (28.2) (Life Technologies). To prepare plates with plate bound anti-CD3 antibody (OKT3), 96-well round bottom tissue culture plates were coated with 100 μl of anti-CD3 antibody (OKT3) at 10 μg/mL for 4 hours at 37° C. 5% CO2 in phosphate buffered saline (PBS). The plates were washed with PBS prior to adding the cells with or without soluble anti-CD28 antibody (28.2) to each well at a final concentration of 5 μg/mL. Cells were stimulated for 48 hours prior to harvesting the cell free supernatant and staining the cell population for surface marker assessment by flow cytometry. Supernatants were analyzed for cytokine secretion (e.g., GM-CSF, IFNγ and TNFα) by ELISA (R&D Systems, Peprotech or Life Technologies) or Luminex multiplex kits (Procarta Life Technologies) following manufacturer's protocol. Cells were stained with anti-CD69 (BD Biosciences) to assess levels of surface markers of activation. Proliferation was measured by flow cytometry and data was analyzed with FlowJo v7.6.5 or v10. Readouts were reported as fold change over baseline. In some embodiments, baseline was the measurement obtained from total human T-cells stimulated with anti-CD3 antibody alone, wherein the cells were not incubated with a Cbl-b inhibitor. In some embodiments, baseline was the measurement obtained from total human T-cells stimulated with anti-CD3 antibody and anti-CD28 antibody, where the cells were not incubated with a Cbl-b inhibitor.
(§2) Cbl-b inhibitors were tested to determine their ability to induce or enhance secretion of cytokines from T-cells (e.g., GM-CSF, IFNγ and TNFα) and/or surface expression of cell surface markers on T-cells (e.g., CD69) that is indicative of T-cell activation. Cbl-b inhibitors were also tested to determine their ability to induce or enhance T-cell proliferation. Cbl-b inhibitors were tested for their effects on T-cell activation in the presence of costimulation and where conditions were suboptimal for priming.
(§3) Readouts for T-cell activation were reported as fold change over baseline. Baseline for this study was the measurement obtained from total human T-cells stimulated with anti-CD3 antibody alone or anti-CD3 antibody in combination with soluble anti-CD28 antibody, where the cells were not incubated with a Cbl-b inhibitor. For T-cells stimulated with anti-CD3/anti-CD28 or with anti-CD3 alone changes greater than 1,2-fold over baseline for % positive CD69 staining and greater than 2-fold over baseline for % total proliferating cells were considered a significant and positive response (Table 4a). […]

[2] = tested on: primary human total T-cells; assay: T-cell activation assessed by CD69 expression
Source text: as §1, §2, §3

T-cell = assay: CD25 cell surface staining on T-cells stimulated with anti-CD3 antibody alone (Biological Example 2); settings: primary human total T-cells, baseline = anti-CD3/anti-CD28 stimulated cells without inhibitor, read-out: CD25 staining, Anti-CD3 stimulation, fold change over baseline
[3] = K562, NK cells cocultured with K562 NucRed, 1:1 E/T, read-out: IFNγ secretion, fold change over baseline
[4] = K562, NK cells cocultured with K562 NucRed, 1:1 E/T, read-out: TNFα secretion, fold change over baseline
[5] = K562, NK cells cocultured with K562 NucRed, 1:1 E/T, 10 μM compound, read-out: IFNγ secretion, fold change over baseline
[6] = K562, NK cells cocultured with K562 NucRed, 1:1 E/T, 10 μM compound, read-out: TNFα secretion, fold change over baseline
[7] = CD3/CD28 stimulation, read-out: GM-CSF secretion
[8] = CD3/CD28 stimulation, read-out: IFNγ secretion
[9] = CD3/CD28 stimulation, read-out: TNFα secretion
[10] = CD3 alone stimulation, read-out: GM-CSF secretion
[11] = CD3 alone stimulation, read-out: IFNγ secretion
[12] = CD3 alone stimulation, read-out: TNFα secretion
[13] = CD3/CD28 stimulation, CD4 T-cells, read-out: % CD69+ (CD4)
[14] = CD3/CD28 stimulation, CD8 T-cells, read-out: % CD69+ (CD8)
[15] = CD3 alone stimulation, CD4 T-cells, read-out: % CD69+ (CD4)
[16] = CD3 alone stimulation, CD8 T-cells, read-out: % CD69+ (CD8)

Structure (SMILES) | fold induction at 0.625 µM (primary human NK cells; [3]) | fold induction at 0.625 µM (primary human NK cells; [4]) | fold induction at 2.5 µM (primary human NK cells; [3]) | fold induction at 2.5 µM (primary human NK cells; [4]) | fold induction at 10 µM (primary human NK cells; [5]) | fold induction at 10 µM (primary human NK cells; [6]) | fold induction at 1.11 µM [1, 7] | fold induction at 1.11 µM [1, 8] | fold induction at 1.11 µM [1, 9] | fold induction at 10 µM [1, 7] | fold induction at 10 µM [1, 8] | fold induction at 10 µM [1, 9] | fold induction at 1.11 µM [1, 10] | fold induction at 1.11 µM [1, 11] | fold induction at 1.11 µM [1, 12] | fold induction at 10 µM [1, 10] | fold induction at 10 µM [1, 11] | fold induction at 10 µM [1, 12] | fold induction at 1.11 µM [2, 13] | fold induction at 10 µM [2, 13] | other results
Cn1cnnc1CC1(c2cccc(NC(=O)c3nc4c(C(F)(F)F)cccc4[nH]3)c2)COC1 [Compound 335, N-(3-{3-[(4-methyl-1,2,4-triazol-3-yl)methyl]oxetan-3-yl}phenyl)-4-(trifluoromethyl)-1H-1,3-benzodiazole-2-carboxamide] | 1.01 to 2 | 1.01 to 2 | 2.01 to 5 | 1.01 to 2 | 2.01 to 5 | 2.01 to 5 | 1.51 to 2 | > 4 | 1.51 to 2 | > 4 | 2.01 to 3 | 2.01 to 4 | ≤ 1.5 | < 2 | 1.51 to 2 | 2.01 to 4 | 2.01 to 3 | 1.51 to 2 | 1.4 to 1.6 | > 1.6 | fold induction at 1.11 µM [2, 14]: 1.2 to 1.4; fold induction at 10 µM [2, 14]: 1.2 to 1.4; fold induction at 1.11 µM [2, 15]: > 1.6; fold induction at 10 µM [2, 15]: > 1.6; fold induction at 1.11 µM [2, 16]: 1.2 to 1.4; fold induction at 10 µM [2, 16]: 1.4 to 1.6
Cc1cc(C(=O)Nc2cccc([C@@H](C)Cc3nncn3C)c2)nc(C2CC2)n1 [Compound 325, (S)-2-Cyclopropyl-6-methyl-N-(3-(1-(4-methyl-4H-1,2,4-triazol-3-yl)propan-2-yl)phenyl)pyrimidine-4-carboxamide] | 1.01 to 2 | < 1 | 1.01 to 2 | < 1 | 2.01 to 5 | 1.01 to 2 | 1.51 to 2 | 3.01 to 4 | ≤ 1.5 | 2.01 to 4 | > 4 | 2.01 to 4 | ≤ 1.5 | < 2 | ≤ 1.5 | 1.51 to 2 | < 2 | ≤ 1.5 | 1.4 to 1.6 | 1.4 to 1.6 | fold induction at 1.11 µM [2, 14]: 1.2 to 1.4; fold induction at 10 µM [2, 14]: 1.2 to 1.4; fold induction at 1.11 µM [2, 15]: 1.4 to 1.6; fold induction at 10 µM [2, 15]: > 1.6; fold induction at 1.11 µM [2, 16]: ≤ 1.2; fold induction at 10 µM [2, 16]: 1.2 to 1.4
Cn1cnnc1C(F)(F)[C@](C)(F)c1cccc(N2Cc3c(cc(CN4CC[C@H](F)C4)cc3C(F)(F)F)C2=O)c1 [Compound 447, 6-(((S)-3-fluoropyrrolidin-1-yl)methyl)-2-(3-((R)-1,1,2-trifluoro-1-(4-methyl-4H-1,2,4-triazol-3-yl)propan-2-yl)phenyl)-4-(trifluoromethyl)isoindolin-1-one] | – | – | – | – | – | – | – | – | – | – | – | – | – | – | – | – | – | – | – | – | fold induction at 1 µM (primary human NK cells; K562, 1:1 E/T, read-out: IFNγ secretion): 2.01 to 5; fold induction at 1 µM (primary human NK cells; K562, 1:1 E/T, read-out: MIP1β secretion): < 1; fold induction at 1 µM (primary human NK cells; K562, 1:1 E/T, read-out: TNFα secretion): 2.01 to 5; fold induction at 10 µM (primary human NK cells; K562, 1:1 E/T, 10 μM, read-out: IFNγ secretion): > 5; fold induction at 10 µM (primary human NK cells; K562, 1:1 E/T, 10 μM, read-out: MIP1β secretion): 1.01 to 2; fold induction at 10 µM (primary human NK cells; K562, 1:1 E/T, 10 μM, read-out: TNFα secretion): 2.01 to 5; fold induction at 1 µM (primary human NK cells; K562, 5:1 E/T, read-out: IFNγ secretion): > 5; fold induction at 1 µM (primary human NK cells; K562, 5:1 E/T, read-out: MIP1β secretion): 1.01 to 2; fold induction at 1 µM (primary human NK cells; K562, 5:1 E/T, read-out: TNFα secretion): 2.01 to 5; fold induction at 10 µM (primary human NK cells; K562, 5:1 E/T, 10 μM, read-out: IFNγ secretion): > 5; fold induction at 10 µM (primary human NK cells; K562, 5:1 E/T, 10 μM, read-out: MIP1β secretion): 2.01 to 5; fold induction at 10 µM (primary human NK cells; K562, 5:1 E/T, 10 μM, read-out: TNFα secretion): > 5; fold induction at 1 µM (T-cell; 1 μM compound): > 1; fold induction at 8 µM (T-cell; 8 μM compound): > 1

From patent US20220324835A1 (Nurix Therapeutics, Inc., priority 2018, published 2022)
